The text below walks through data of patent US9504675B2, “Alpha-ketoheterocycles and methods of making and using” (The Scripps Research Institute, priority 2011, dated 2016).

SMILES strings stand for the structures.

For orientation: Ki means the dissociation constant of the complex between target and ligand, obtained from inhibition or displacement.

The target of one experiment is T1, recombinant rat FAAH (rFAAH) (Rattus norvegicus, UniProt P97612).
T1 construct: The truncated rat FAAH (rFAAH) was expressed in E. coli and purified; made in house; host or cells: Escherichia coli
T1 sequence (P97612 30-579 limits assumed): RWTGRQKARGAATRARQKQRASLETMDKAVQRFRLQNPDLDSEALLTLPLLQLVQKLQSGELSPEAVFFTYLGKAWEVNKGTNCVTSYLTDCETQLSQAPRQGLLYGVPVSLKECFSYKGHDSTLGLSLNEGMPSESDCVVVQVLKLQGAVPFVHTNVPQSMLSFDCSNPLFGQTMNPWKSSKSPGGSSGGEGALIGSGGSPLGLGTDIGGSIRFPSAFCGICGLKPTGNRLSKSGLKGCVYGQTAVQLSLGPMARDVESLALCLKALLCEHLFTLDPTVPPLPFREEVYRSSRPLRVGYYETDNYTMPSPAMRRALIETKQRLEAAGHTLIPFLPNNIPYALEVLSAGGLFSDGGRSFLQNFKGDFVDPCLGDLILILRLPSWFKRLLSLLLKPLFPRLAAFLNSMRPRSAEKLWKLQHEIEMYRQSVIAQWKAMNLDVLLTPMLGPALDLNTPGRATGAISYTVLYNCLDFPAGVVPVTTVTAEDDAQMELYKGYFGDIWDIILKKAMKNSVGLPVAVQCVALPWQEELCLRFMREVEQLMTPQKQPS
Briefly: Enzyme assay: inhibition of purified recombinant rat FAAH, 14C-oleamide hydrolysis, Ki by Dixon plot. Format: biochemical.
Conditions: not given
Here is the method:
Enzyme assays were performed at 20-23° C. with purified recombinant rat FAAH expressed in Escherichia coli or with solubilized COS-7 membrane extracts from cells transiently transfected with human FAAH cDNA (where specifically indicated) in a buffer of 125 mM Tris/1 mM EDTA/0.2% glycerol/0.02% Triton X-100/0.4 mM Hepes, pH 9.0.
^14C-labeled oleamide was prepared from ^14C-labeled oleic acid. The truncated rat FAAH (rFAAH) was expressed in E. coli and purified. The purified recombinant rFAAH was used in the inhibition assays unless otherwise indicated. The full-length human FAAH (hFAAH) was expressed in COS-7 cells as described, and the lysate of hFAAH-transfected COS-7 cells was used in the inhibition assays where explicitly indicated.
The inhibition assays were performed as follows. […] The enzyme reaction was terminated by transferring 20 μL of the reaction mixture to 500 μL of 0.1 N HCl at three different time points. The ^14C-labeled oleamide (substrate) and oleic acid (product) were extracted with EtOAc and analyzed by TLC as detailed. The Ki of the inhibitor was calculated using a Dixon plot as described (standard deviations are provided in the Supporting Information tables).
`O=C(c1ncc(-c2ccccn2)o1)C1Cc2ccccc2C1` [Compound 40, (Indan-2-yl)(5-(pyridin-2-yl)oxazol-2-yl)methanone]: the “Ki relative to the FAAH inhibitor lacking the conformational constraints (Ki=200 nM)” value is recorded as 5 fold.

The same experiment, now with this note: Ki, Table 2, (R)-enantiomer, 1,2,3,4-tetrahydronaphthalene C2 acyl side chain.
Take `N#Cc1cnc(C(=O)C2CCc3cc(OCc4ccccc4)ccc3C2)o1` (single isomer, unassigned) [(R)-17, 2-(6-(Benzyloxy)-1,2,3,4-tetrahydronaphthalene-2-carbonyl)oxazole-5-carbonitrile]: the Ki amounted to 120 nM.
On to `O=C(c1ncc(-c2ccccn2)o1)C1CCc2cc(Oc3ccccc3)ccc2C1` (single isomer, unassigned) [(R)-12, (6-Phenoxy-1,2,3,4-tetrahydronaphthalen-2-yl)(5-(pyridin-2-yl)oxazol-2-yl)methanone], for which the Ki stood at 290 nM.
On the same count and under the same terms, under `COC(=O)c1cnc(C(=O)C2CCc3cc(-c4ccccc4)ccc3C2)o1` (single isomer, unassigned) [(R)-4, Methyl 2-(6-Phenyl-1,2,3,4-tetrahydronaphthalene-2-carbonyl)oxazole-5-carboxylate] stands 1400 nM; under `O=C(O)c1cccc(-c2cnc(C(=O)C3CCc4cc(Oc5ccccc5)ccc4C3)o2)n1` (single isomer, unassigned) [(R)-14, 6-(2-(6-Phenoxy-1,2,3,4-tetrahydronaphthalene-2-carbonyl)oxazol-5-yl)picolinic acid], 220 nM; under `O=C(c1ncco1)C1CCc2cc(-c3ccccc3)ccc2C1` (single isomer, unassigned) [(R)-3, Oxazol-2-yl(6-phenyl-1,2,3,4-tetrahydronaphthalen-2-yl)methanone], 460 nM.
On the same count and under the same terms, under `N#Cc1cnc(C(=O)C2CCc3cc(Oc4ccccc4)ccc3C2)o1` (single isomer, unassigned) [(R)-11, 2-(6-Phenoxy-1,2,3,4-tetrahydronaphthalene-2-carbonyl)oxazole-5-carbonitrile] stands 54 nM.
Same read-out and setting: next, `COC(=O)c1cccc(-c2cnc(C(=O)C3CCc4cc(OCc5ccccc5)ccc4C3)o2)n1` (single isomer, unassigned) [(R)-19, Methyl 6-(2-(6-(Benzyloxy)-1,2,3,4-tetrahydronaphthalene-2-carbonyl)oxazol-5-yl)picolinate]: 4500 nM.

Still in this experiment, the particulars now being: Ki, Table 2, (S)-enantiomer, 1,2,3,4-tetrahydronaphthalene C2 acyl side chain.
On to `O=C(c1ncco1)C1CCc2cc(-c3ccccc3)ccc2C1` (single isomer, unassigned) [(S)-3, Oxazol-2-yl(6-phenyl-1,2,3,4-tetrahydronaphthalen-2-yl)methanone], for which the Ki turned out to be 57 nM.
As for `N#Cc1cnc(C(=O)C2CCc3cc(Oc4ccccc4)ccc3C2)o1` (single isomer, unassigned) [(S)-11, 2-(6-Phenoxy-1,2,3,4-tetrahydronaphthalene-2-carbonyl)oxazole-5-carbonitrile], the Ki worked out at 1.3 nM.
Same read-out and setting: under `COC(=O)c1cccc(-c2cnc(C(=O)C3CCc4cc(-c5ccccc5)ccc4C3)o2)n1` (single isomer, unassigned) [(S)-7, Methyl 6-(2-(6-Phenyl-1,2,3,4-tetrahydronaphthalene-2-carbonyl)oxazol-5-yl)picolinate] stands 27 nM.
As to `COC(=O)c1cnc(C(=O)C2CCc3cc(OCc4ccccc4)ccc3C2)o1` (single isomer, unassigned) [(S)-16, Methyl 2-(6-(Benzyloxy)-1,2,3,4-tetrahydronaphthalene-2-carbonyl)oxazole-5-carboxylate], the Ki was found to be 2.9 nM.
The same measure, in the same setting: under `O=C(O)c1cccc(-c2cnc(C(=O)C3CCc4cc(-c5ccccc5)ccc4C3)o2)n1` (single isomer, unassigned) [(S)-8, 6-(2-(6-Phenyl-1,2,3,4-tetrahydronaphthalene-2-carbonyl)oxazol-5-yl)picolinic acid] stands 39 nM; under `COC(=O)c1cnc(C(=O)C2CCc3cc(-c4ccccc4)ccc3C2)o1` (single isomer, unassigned) [(S)-4, Methyl 2-(6-Phenyl-1,2,3,4-tetrahydronaphthalene-2-carbonyl)oxazole-5-carboxylate], 55 nM.
As for `O=C(c1ncc(-c2ccccn2)o1)C1CCc2cc(-c3ccccc3)ccc2C1` (single isomer, unassigned) [(S)-6, (6-Phenyl-1,2,4-tetrahydronaphthalen-2-yl)(5-(pyridin-2-yl)oxazol-2-yl)methanone], the Ki amounted to 7.2 nM.
On to `O=C(c1ncc(-c2ccccn2)o1)C1CCc2cc(OCc3ccccc3)ccc2C1` (single isomer, unassigned) [(S)-18, (6-(Benzyloxy)-1,2,3,4-tetrahydronaphthalen-2-yl)(5-(pyridin-2-yl)oxazol-2-yl)methanone], for which the Ki was determined as 3.2 nM.
On the same count and under the same terms, next, `O=C(O)c1cccc(-c2cnc(C(=O)C3CCc4cc(OCc5ccccc5)ccc4C3)o2)n1` (single isomer, unassigned) [(S)-20, 6-(2-(6-(Benzyloxy)-1,2,3,4-tetrahydronaphthalene-2-carbonyl)oxazol-5-yl)picolinic acid]: 34 nM; `COC(=O)c1cccc(-c2cnc(C(=O)C3CCc4cc(OCc5ccccc5)ccc4C3)o2)n1` (single isomer, unassigned) [(S)-19, Methyl 6-(2-(6-(Benzyloxy)-1,2,3,4-tetrahydronaphthalene-2-carbonyl)oxazol-5-yl)picolinate]: 18 nM.

The experiment is the same for the next values; noted with them: Ki, Table 3, (R)-enantiomer, indane C2 acyl side chain.
As to `O=C(c1ncc(-c2ccccn2)o1)C1Cc2ccc(-c3ccccc3)cc2C1` (single isomer, unassigned) [(R)-23, (5-Phenylindan-2-yl)-(5-(pyridin-2-yl)oxazol-2-yl)methanone], the Ki stood at 600 nM.
The same measure, in the same setting: under `O=C(O)c1cccc(-c2cnc(C(=O)C3Cc4ccc(Oc5ccccc5)cc4C3)o2)n1` (single isomer, unassigned) [(R)-29, 6-(2-(5-Phenoxyindane-2-carbonyl)oxazol-5-yl)picolinic acid] stands 550 nM; under `COC(=O)c1cccc(-c2cnc(C(=O)C3Cc4ccc(Oc5ccccc5)cc4C3)o2)n1` (single isomer, unassigned) [(R)-28], 790 nM.

The experiment is the same for the next values; noted with them: Ki, Table 3, tentatively assigned (S)-enantiomer, indane C2 acyl side chain.
On to `O=C(c1ncc(-c2ccccn2)o1)C1Cc2ccc(Oc3ccccc3)cc2C1` (single isomer, unassigned) [(S)-27, (5-Phenoxyindan-2-yl)(5-(pyridin-2-yl)oxazol-2-yl)methanone], for which the Ki was found to be 2.1 nM.
For the molecule `O=C(O)c1cccc(-c2cnc(C(=O)C3Cc4ccc(Oc5ccccc5)cc4C3)o2)n1` (single isomer, unassigned) [(S)-29, 6-(2-(5-Phenoxyindane-2-carbonyl)oxazol-5-yl)picolinic acid], the Ki was found to be 71 nM.
On the same count and under the same terms, under `O=C(c1ncc(-c2ccccn2)o1)C1Cc2ccc(-c3ccccc3)cc2C1` (single isomer, unassigned) [(S)-23, (5-Phenylindan-2-yl)-(5-(pyridin-2-yl)oxazol-2-yl)methanone] stands 1.9 nM; under `O=C(c1ncco1)C1Cc2ccc(Oc3ccccc3)cc2C1` (single isomer, unassigned) [(S)-26, Oxazol-2-yl(5-phenoxyindan-2-yl)methanone], 10 nM.
On the same count and under the same terms, next, `O=C(O)c1cccc(-c2cnc(C(=O)C3Cc4ccc(OCc5ccccc5)cc4C3)o2)n1` (single isomer, unassigned) [(S)-33, 6-(2-(5-(Benzyloxy)indane-2-carbonyl)oxazol-5-yl)picolinic acid]: 51 nM.

Staying with this experiment, now noted: Ki, Table 4, (S)-enantiomer, additional FAAH inhibitors.
Turning to `O=C(c1nnco1)C1CCc2cc(Oc3ccccc3)ccc2C1` (single isomer, unassigned) [(S)-34, (1,3,4-Oxadlazol-2-yl)(6-phenoxy-1,2,3,4-tetrahydronaphthalen-2-yl)methanone], the Ki turned out to be 0.5 nM.
On the same count and under the same terms, under `O=C(c1nnc(-c2ccccn2)o1)C1CCc2cc(Oc3ccccc3)ccc2C1` (single isomer, unassigned) [(S)-36, (6-Phenoxy-1,2,3,4-tetrahydronaphthalen-2-yl)(5-(pyridin-2-yl)-1,3,4-oxadiazol-2-yl)methanone] stands 1 nM.

The same experiment, now with this note: Table 3, racemate (enantiomers not separable), indane C2 acyl side chain; read-out: Ki.
For `O=C(c1ncco1)C1Cc2ccc(OCc3ccccc3)cc2C1` (racemic) [Compound 30, (5-(Benzyloxy)indan-2-yl)(oxazol-2-yl)methanone], the Ki came out at 24 nM.

Still in this experiment, the particulars now being: Table 4, meso indane derivatives without aryl substituent; read-out: Ki.
As for `O=C(c1ncco1)C1Cc2ccccc2C1` [Compound 39, (Indan-2-yl)(oxazol-2-yl)methanone], the Ki is 7100 nM.

Still in this experiment, the particulars now being: read-out: Ki.
Regarding `O=C(c1ncc(-c2ccccn2)o1)C1Cc2ccccc2C1` [Compound 40, (Indan-2-yl)(5-(pyridin-2-yl)oxazol-2-yl)methanone], the Ki was determined as 1100 nM.
